{"source": "a melting point compilation (Tetko et al.; mined from patent text by program, amines drawn as free bases though some values may be those of a salt)", "data": [{"units": {"melting point": "°C"}, "values": [{"smiles": "Cc1cc(N2CCCC2)c2ccc(I)cc2n1", "melting point": "99 to 102"}, {"smiles": "Cn1cc(OS(C)(=O)=O)c(=O)c2ccccc21", "melting point": "208 to 209"}, {"smiles": "Cc1cn(COC(CO)CO)c(=O)[nH]c1=O", "melting point": "156 to 157"}, {"smiles": "CCOC(=O)N1CCN(c2cn(Cc3ccccc3)c3cc(OC)ccc3c2=O)CC1", "melting point": "173 to 174"}, {"smiles": "CCN(CC)C(=O)n1cnc(S(=O)(=O)C(F)F)n1", "melting point": "58 to 59"}, {"smiles": "CNC(=O)c1ccc(C)c(-n2c(C)cc(OCc3ccccc3CNC(=O)Nc3cc(C(C)(C)C)nn3-c3ccc(O)c(Cl)c3)c(Cl)c2=O)c1", "melting point": "201 to 203"}, {"smiles": "CCc1cccc2c3c([nH]c12)C(CC)(CC(C)O)OCC3", "note": "(stereo unspecified)", "melting point": "103 to 104"}, {"smiles": "O=C1COc2ccc(C3=Cc4cc(F)ccc4SC3)cc2N1", "melting point": "229 to 234"}, {"smiles": "CC1(C)COc2ccc(C(N)=O)cc21", "melting point": "136 to 138"}, {"smiles": "O=C(Nc1cn2nc(Sc3nnc4ccccn34)ccc2n1)C1CC1", "melting point": "193 to 195"}, {"smiles": "Cc1c(-c2ccccc2)sc2nc(NCCO)[nH]c(=O)c12", "melting point": "227 to 229"}, {"smiles": "Cc1nc(N)c([N+](=O)[O-])cc1Cl", "melting point": "214 to 215"}, {"smiles": "O=C(O)c1c2c(nc3ccccc13)-c1cc3sc4ccccc4c3cc1CC2", "melting point": "190 to 193"}, {"smiles": "Oc1cc(Cl)c(N2CCOCC2)cc1Oc1ccc(Cl)cc1Cl", "melting point": "187 to 188"}, {"smiles": "COc1ccc2c3c1OC1C(=O)C(COS(=O)(=O)c4ccc(C)cc4)(COS(=O)(=O)c4ccc(C)cc4)CC4C(C2)N(C)CCC314", "note": "(stereo unspecified)", "melting point": "150 to 153"}, {"smiles": "O=C1C(Cc2ccccc2)CCCCCC1Cc1ccccc1", "note": "(stereo unspecified)", "melting point": "66 to 68"}, {"smiles": "O=C1c2ccccc2-c2cc(O)cc3cccc1c23", "melting point": "297 to 298"}, {"smiles": "O=C(O)CCCCc1nn(-c2ccccc2)c2c1CCC2", "melting point": "98 to 99"}, {"smiles": "CC(=O)c1cccc(Oc2ncccc2C(=O)NCc2ccc(S(N)(=O)=O)cc2)c1", "melting point": "162 to 164"}, {"smiles": "C=CCOc1ccc2c(c1)Oc1cc(O)ccc1C21OC(=O)c2ccccc21", "note": "(stereo unspecified)", "melting point": 204}, {"smiles": "CN1N=C(c2ccc(F)cc2)c2cc(F)ccc2CS1(=O)=O", "melting point": "169 to 171"}, {"smiles": "CC12CCC3=C(CCC(CCCC#N)O3)C1=CCC2=O", "note": "(stereo unspecified)", "melting point": 100}, {"smiles": "CC1CC(O)=NN1c1ccc(Cl)c(Cl)c1", "note": "(stereo unspecified)", "melting point": "208 to 211"}, {"smiles": "CSc1nccc(Oc2ccc(NC(=O)c3cccc(OC(C)(C)C)c3)c3ccccc23)n1", "melting point": "135 to 136"}, {"smiles": "NC(=S)CN1CCCC1=S", "melting point": "154 to 156"}, {"smiles": "CCOC(=O)c1c(O)nc(SCC)n1C(C)C", "melting point": "82 to 84"}, {"smiles": "COc1ccc2ccc(N3C(=O)c4ccccc4C3OCC(=O)NCCN(C)C)nc2n1", "note": "(stereo unspecified)", "melting point": 146}, {"smiles": "CC(=O)OCc1ccc2oc(=O)c(C(=O)Oc3cc(F)ccc3[N+](=O)[O-])cc2c1", "melting point": "157 to 161"}, {"smiles": "CS(=O)(=O)CCC(C#N)CC#N", "note": "(stereo unspecified)", "melting point": "123 to 125"}, {"smiles": "Cc1ccc(C(=O)Nc2ccc(S(N)(=O)=O)cc2)c(SSc2cc(C)ccc2C(=O)Nc2ccc(S(N)(=O)=O)cc2)c1", "melting point": "319 to 320"}, {"smiles": "CCCCCCC(=O)Nc1ncnc(NC2CC2)n1", "melting point": "195 to 197"}, {"smiles": "CC(=O)Nc1c(Cl)c(C(C)(C)C)nn1-c1c(Cl)cc(C(F)(F)F)cc1Cl", "melting point": 211}, {"smiles": "CCCCCCCCCCCCCCC(=O)CCl", "melting point": "52.5 to 53.5"}, {"smiles": "CCOC(=O)Cc1c(-c2ccccc2)c2cc(COC(C)=O)c(COC(C)=O)cc2oc1=O", "melting point": "95 to 96"}, {"smiles": "Cc1ccc2oc(N(C=O)[C@@H](Cc3ccccn3)c3ncc(-c4ccc(N5CCOCC5)cc4)n3C)cc2c1", "melting point": "125 to 127"}, {"smiles": "CCOC(=O)c1ccc(NC(=O)Oc2ccccc2)cc1", "melting point": "156 to 162"}, {"smiles": "CCCc1nn(C)c2c(=S)[nH]c(-c3cc(S(=O)(=O)N4C[C@@H](C)N[C@@H](C)C4)ccc3OCC)nc12", "melting point": "196 to 199"}, {"smiles": "N#Cc1c(OCCOc2ccccc2)cccc1[N+](=O)[O-]", "melting point": "129 to 138"}, {"smiles": "COc1ccc2nc(COc3cccc(OCc4cccc(C)c4C(=O)O)c3)ccc2c1", "melting point": "176 to 179"}, {"smiles": "C[C@@]1(Cn2cc([N+](=O)[O-])nc2Br)CO1", "melting point": "93 to 94"}, {"smiles": "CCc1cnc2c(NC(=O)c3c(Cl)cccc3Cl)cccc2c1-n1ccnc1", "melting point": "187 to 188"}, {"smiles": "O=C1NC(=O)c2cc(Nc3ccc(O)c(O)c3)c(Nc3ccccc3)cc21", "melting point": "204 to 205"}, {"smiles": "Cc1nc(N2CCN(Cc3ccccc3)C2=O)sc1C(=O)NCc1cccc(Cl)c1", "melting point": "178 to 179"}, {"smiles": "CCCC(=O)c1cnn(C)c1S(=O)(=O)NC(=O)Nc1nc(C)nc(OC)n1", "melting point": "174 to 176"}, {"smiles": "OC(Cn1cncn1)(c1ccc(F)cc1F)C(c1ccc(OCc2ccccc2)cc1)n1cncn1", "note": "(stereo unspecified)", "melting point": "144 to 147"}, {"smiles": "O=c1cc(OCc2ccccc2)cc(C=Cc2ccc3c(c2)OCO3)o1", "melting point": "150 to 152"}, {"smiles": "CCCCCCC(C(=O)OCC)c1ccc(NC(=O)C2c3ccccc3-c3ccccc32)cc1", "note": "(stereo unspecified)", "melting point": "174 to 175"}, {"smiles": "O=C(NCc1ccccc1)c1ccnc(-n2cnn(Cc3ccc(F)cc3)c2=O)c1", "melting point": "173 to 175"}, {"smiles": "C=CCC(=O)Nc1n[nH]c2cc(Cl)ccc12", "melting point": 150}, {"smiles": "COc1cc(NC(=O)Nc2cccc3c2C2CC(O)CCN2C3=O)nc2ccccc12", "note": "(stereo unspecified)", "melting point": "> 260"}, {"smiles": "Fc1cccc(CSc2nnc(-c3ccc4nccn4c3)o2)c1", "melting point": "173 to 174"}, {"smiles": "COC(=O)Nc1nc(OC)cc(OC)n1", "melting point": "81 to 83"}, {"smiles": "Cn1nnnc1CC(=O)c1cc(F)c(F)cc1N", "melting point": "162 to 164"}, {"smiles": "COc1ccc(OC)c(C=CC(=O)Nc2cnc3c(C)cc(C)cc3c2-c2ccccc2Cl)c1", "melting point": "209 to 210"}, {"smiles": "OC1CCC2(c3c[nH]cn3)Cc3ccccc3C12", "note": "(stereo unspecified)", "melting point": "183 to 186"}, {"smiles": "O=C1OC(N2C(=O)NC(=O)C23C(=O)N(Cc2ccc(Cl)c(Cl)c2)c2ccccc23)c2ccccc21", "note": "(stereo unspecified)", "melting point": "154 to 158"}, {"smiles": "Cc1ccc(S(C)(=O)=O)cc1-c1n[nH]c2nc(Oc3ccc(F)cc3F)ncc12", "melting point": "133 to 135"}, {"smiles": "O=C(CBr)c1ccc2oc3ccc(C(=O)CBr)cc3c(=O)c2c1", "melting point": "209 to 210"}, {"smiles": "O=C(/C=C/c1cccc(S(=O)(=O)N2CCN(Cc3ccccc3)CC2)c1)NO", "melting point": 185}, {"smiles": "COCOc1ccc(Cc2cccc(-c3c(O)c4ccc(Cl)cc4[nH]c3=O)c2)cc1", "melting point": "261 to 264"}, {"smiles": "CCNC(=NC(=Nc1ccccc1)N1CCOCC1)C(C)C", "melting point": "155 to 158"}, {"smiles": "CCN1C(=O)C(C)(C)C(=O)N(C)c2cc(CN(CCn3cc(C)c4occc4c3=O)Cc3cnc(C)nc3)ccc21", "melting point": "166 to 167"}, {"smiles": "CSc1nc(-c2cc(NC(=O)c3ccc(C)c(F)c3)ccc2C)c2c(n1)N(c1c(F)cccc1F)C(=O)NC2", "melting point": "167 to 173"}, {"smiles": "CC(C)OC(=O)C(O)C(CC1CCCCC1)NC(=O)C(Cc1c[nH]cn1)NC(=O)C(CCOc1ccc(F)cc1)Cc1cccc2ccccc12", "note": "(mixture of isomers)", "melting point": "87 to 91"}, {"smiles": "Cc1sc(NC(=O)CCc2cnoc2-c2ccccc2)nc1-c1ccccc1", "melting point": "150 to 151"}, {"smiles": "COC1=C(OCCCc2ccccc2)c2c(C)ccnc2C(N)([N+](=O)[O-])C1", "note": "(stereo unspecified)", "melting point": "91 to 91.5"}, {"smiles": "O=S(=O)(Nc1ccc2c(OCc3ccc(C4CCCCC4)cc3)cccc2c1)C(F)(F)F", "melting point": "108 to 110"}, {"smiles": "CN1CCN(c2cnc(-c3cc(Cl)cc(Cl)c3Cl)c(N)n2)CC1", "melting point": 185}, {"smiles": "COC1(c2cccc(OCc3ccc4ccc(F)cc4c3)c2)CC(C)OC(C)C1", "note": "(stereo unspecified)", "melting point": 77}, {"smiles": "CC(O)c1cc2c3ccccc3n(C)c(=O)n2n1", "note": "(stereo unspecified)", "melting point": "169 to 172"}, {"smiles": "S=c1nc2ccc(Cl)cn2c(=S)n1-c1ccc(Cl)cn1", "melting point": "131 to 132"}, {"smiles": "O=[N+]([O-])c1cc(CCl)ccc1Oc1ccc(OCc2ccccc2)cc1", "melting point": "106 to 107"}, {"smiles": "CCN(CC)C(=O)c1c(-c2ccccc2)[nH]c2ccccc12", "melting point": "224 to 226"}, {"smiles": "CCOC(=O)C1(C(=O)OCC)Oc2ccc(CN/C=C3\\C(=O)NC(=O)c4ccc(Br)cc43)cc2O1", "melting point": "222 to 223"}, {"smiles": "Cn1c(C(F)(F)F)cc(=O)n(-c2cc(OC=O)c(Cl)cc2F)c1=O", "melting point": "97 to 99"}, {"smiles": "Cc1ccc(S(=O)(=O)c2cnc(C)nc2Nc2c(C)cc(C)cc2C)cc1", "melting point": "202 to 204"}, {"smiles": "NC(=S)c1cn(COCCO)c2ncnc(N)c12", "melting point": "186 to 188"}, {"smiles": "ON=c1cc(-c2cn3cccc3cn2)oc2ccc(OCCc3ccc(F)cc3)cc12", "melting point": "248 to 250"}, {"smiles": "COC(=O)c1ccc(OC(=O)c2cccc(C(=O)Oc3ccc(C(=O)OC)cc3)c2)cc1", "melting point": "215 to 217"}, {"smiles": "CCCn1c(C)nc(N2CCc3ccccc3CC2)c([N+](=O)[O-])c1=O", "melting point": "164 to 170"}, {"smiles": "Cn1ncc(N2CCN(CC=Cc3ccccc3)CC2)c(Cl)c1=O", "melting point": "98 to 100"}, {"smiles": "Oc1nc(-c2ccc(Cl)cc2)nc2c1CCCC2", "melting point": 255}, {"smiles": "CCCn1cnc2c1c(=O)n(CCCCCCOc1ccc(OC)cc1)c(=O)n2C", "melting point": "56 to 67"}, {"smiles": "CCCc1[nH]c2cc(C(=O)O)ccc2c1C(=O)C1CCC1", "melting point": "244 to 245"}, {"smiles": "C=CC1(F)CN(C2CCCC2)c2nc(Nc3ccc(C(=O)NC4CCCNC4)cc3OC)ncc2N(C)C1=O", "note": "(stereo unspecified)", "melting point": "169 to 172"}, {"smiles": "COc1ccc(C2(C#N)CCC(=O)CC2)c2c1OCCO2", "melting point": "157 to 161"}, {"smiles": "C#CC1(OC(=O)c2ccccc2)C(COC(=O)c2ccc(Cl)cc2)OC(OC(=O)c2ccccc2)C1OC(=O)c1ccccc1", "note": "(stereo unspecified)", "melting point": "66 to 68"}, {"smiles": "COc1ccc(C2OC(=O)c3cc(OC)c(OC)c(OC)c32)cc1OC", "note": "(stereo unspecified)", "melting point": "141 to 142"}, {"smiles": "O=C1C(=CO)Cc2c1cnn2Cc1ccccc1", "melting point": "171 to 172"}, {"smiles": "CN(C)Cc1noc(-c2nn(Cc3ccccc3)c3ccccc23)n1", "melting point": "93 to 95"}, {"smiles": "CCCCCCC#CCC#CCC#CCC#CCCCC(=O)NO", "melting point": "85 to 88"}, {"smiles": "CCOC(=O)NC(=O)Nc1ccc(Cl)cc1C(=O)c1ccccc1F", "melting point": "208 to 209"}, {"smiles": "C#Cc1ccc(Nc2c(C(=O)c3nccs3)ccc(F)c2F)c(F)c1", "melting point": 161}, {"smiles": "CCN1CCc2ccc(Nc3ncc(Br)c(Nc4ccccc4C(=O)NC)n3)cc2CC1", "melting point": "203 to 204"}, {"smiles": "O=C(c1cccnc1)n1nc(-c2ccc(Br)cc2)cc1C(F)(F)F", "melting point": "150 to 152"}, {"smiles": "COc1cc(C(C)C)c2c(c1)S(=O)(=O)N(COc1cc(C(F)(F)F)nn1Cc1ccccc1)C2=O", "melting point": "116 to 118"}]}]}
